Converted amounts (≈) assume the structure as drawn. “Also recorded” adds a separate entry of the source.
What was measured:
[1] = system: Corynebacterium paurometabolum; assay: MIC, agar dilution method; assay type: cell-based; details: Tsukamurella paurometabola; pH 7.0, 37° C., 18 hours
Cryptococcus neoformans = assay: MIC, agar dilution method; assay type: cell-based; details: pH 6.8, 27° C. 72 hours
mice = details: mouse, in vivo, 450 mg/kg
Eimeria tenella K-2 = assay: anticoccidial test in chicks (Example 4); details: for Caecal lession (numbers of chicks), +: grade + (light); for Caecal lession (numbers of chicks), + / Caecal lession (numbers of chicks), ++ / Caecal lession (numbers of chicks), +++ / Caecal lession (numbers of chicks), -: groups of 10 chicks; for Caecal lession (numbers of chicks), ++: grade ++ (middle); for Caecal lession (numbers of chicks), +++: grade +++ (heavy); for Caecal lession (numbers of chicks), -: grade - (not infected)
Escherchia coli NIHJ = assay: MIC, agar dilution method; assay type: cell-based; details: pH 7.0, 37° C., 18 hours
Sarcina lutea PCI 1001 = assay: MIC, agar dilution method; assay type: cell-based
Fusarium oxysporum = assay: MIC, agar dilution method; assay type: cell-based; details: pH 6.8, 27° C. 72 hours
S. aureus FDA 209P JC-1 = assay: MIC, agar dilution method; assay type: cell-based; details: Staphylococcus aureus, FDA209P; pH 7.0, 37° C., 18 hours
poultry [2] = assay: side effects in poultry; assay type: in vivo, poultry such as chickens; details: pharmaceutical composition or assorted diet, chickens, turkeys
[3] = system: Trichophyton mentagrophytes; assay: MIC, agar dilution method; assay type: cell-based; details: pH 6.8, 27° C. 72 hours
Eimeria brunetti = assay: anticoccidial activity; assay type: in vivo
Alternaria kikuchiana = assay: MIC, agar dilution method; assay type: cell-based; details: pH 6.8, 27° C. 72 hours
[4] = system: Bacillus subtilis PCI 219; assay: MIC, agar dilution method; assay type: cell-based; details: PCI219, pH 7.0, 37° C., 18 hours
[5] = system: Staphylococcus aureus FDA 209P; assay: MIC, agar dilution method; assay type: cell-based; details: FDA209P, pH 7.0, 37° C., 18 hours
poultry [6] = assay: growth-promoting effect in poultry; assay type: in vivo; details: 0.001 to 0.02% by weight of the diet
Excerpt: Thus, AM-1042 is potentially of interest owing to its growth-promoting effect. For this purpose, the mode of administration is analogous to those described above.

in vivo = details: mouse, ip
[7] = system: Pseudomonas aerginosa P-3; assay: MIC, agar dilution method; assay type: cell-based; details: P3, pH 7.0, 37° C., 18 hours
Sclerotinia cinerea = assay: MIC, agar dilution method; assay type: cell-based; details: pH 6.8, 27° C. 72 hours
Eimeria necatrix = assay: anticoccidial activity; assay type: in vivo
E. coli B = assay: MIC, agar dilution method; assay type: cell-based; details: Escherichia coli; pH 7.0, 37° C., 18 hours
Procedure: (§1) Table 1 indicates the antibacterial and antifungal activity of AM-1042 as minimum inhibitory concentration (mcg/ml) determined by the agar dilution method.
(§2) *Peptone 0.5%; meat extract 0.5%; agar 1.2% (pH 7.0), 37° C., 18

B. agri = assay: MIC, agar dilution method; assay type: cell-based; details: pH 7.0, 37° C., 18 hours
Procedure: as §1, §2

S. albus = assay: MIC, agar dilution method; assay type: cell-based; details: pH 7.0, 37° C., 18 hours
Procedure: as §1, §2

Shigella sonnei E-33 = assay: MIC, agar dilution method; assay type: cell-based; details: E33, pH 7.0, 37° C., 18 hours
Procedure: as §1, §2

B. anthracis = assay: microbe, parasite or virus in culture; assay type: cell-based; details: Bacillus anthracis, 18 h, pH 7
[8] = system: S. aureus FS-1277 (penicillin-resistant); assay: MIC, agar dilution method; assay type: cell-based; details: Staphylococcus aureus; pH 7.0, 37° C., 18 hours
Eimeria tenella = assay: anticoccidial activity; assay type: in vivo
B. subtilis ATCC 6633 = assay: MIC, agar dilution method; assay type: cell-based; details: Bacillus subtilis, ATCC6633; pH 7.0, 37° C., 18 hours
Candida albicans = assay: MIC, agar dilution method; assay type: cell-based; details: pH 6.8, 27° C. 72 hours
Salmonella typhimurium = assay: MIC, agar dilution method; assay type: cell-based; details: Salmonella enterica, pH 7.0, 37° C., 18 hours
[9] = system: Eimeria tenella K-2, E. acervulina and E. maxima; assay: anticoccidial test in chicks, mixed infection (Example 5); assay type: in vivo, E. maxima (in chicks); set-up: key to Caecal lession: -: not infected; +: light; ++: middle; +++: heavy; details: for RIW (ratio of the increase of the body weight): vs healthy chicks
Procedure: The results are shown in Table 5 where the ratio of the increase of the body weight (RIW) is calculated as follows: (RIW (%)=[weight at the completion of the test (in average)]/[weight of healthy chicks (control) in average]×100%.

B. subtilis NRRL B-558 = assay: MIC, agar dilution method; assay type: cell-based; details: Bacillus subtilis, NRRLB558; pH 7.0, 37° C., 18 hours

## O=C(/C=C/C=C/C=C/C1CCCCC1)NC1=CC(O)(/C=C/C=C/C=C/C(=O)NC2=C(O)CCC2=O)C2OC2C1=O (stereo not shown) [AM-1042]
[1]
  MIC: 1.56 µg/mL (≈ 2.85 µM)
Cryptococcus neoformans
  MIC: > 100 µg/mL
mice
  side effect on mice: no side effect
Eimeria tenella K-2; 0.00375 % in diet
  Survival ratio: 90%
  Caecal lession (numbers of chicks), +: 1 numbers of chicks
  Caecal lession (numbers of chicks), ++: 4 numbers of chicks
  Caecal lession (numbers of chicks), +++: 5 numbers of chicks
Eimeria tenella K-2; 0.005 % in diet
  Survival ratio: 90%
  Caecal lession (numbers of chicks), +: 3 numbers of chicks
  Caecal lession (numbers of chicks), ++: 4 numbers of chicks
  Caecal lession (numbers of chicks), +++: 3 numbers of chicks
Eimeria tenella K-2; 0.0075 % in diet
  Survival ratio: 100%
  Caecal lession (numbers of chicks), +: 5 numbers of chicks
  Caecal lession (numbers of chicks), ++: 2 numbers of chicks
  Caecal lession (numbers of chicks), -: 3 numbers of chicks
Eimeria tenella K-2; 0.01 % in diet
  Survival ratio: 100%
  Caecal lession (numbers of chicks), +: 2 numbers of chicks
  Caecal lession (numbers of chicks), -: 8 numbers of chicks
Eimeria tenella K-2; 0.015 % in diet
  Survival ratio: 100%
  Caecal lession (numbers of chicks), -: 10 numbers of chicks
Eimeria tenella K-2; 0.02 % in diet
  Survival ratio: 100%
  Caecal lession (numbers of chicks), -: 10 numbers of chicks
Eimeria tenella K-2; 0.03 % in diet
  Survival ratio: 100%
  Caecal lession (numbers of chicks), -: 10 numbers of chicks
Escherchia coli NIHJ
  MIC: 100 µg/mL (≈ 183 µM)
Sarcina lutea PCI 1001
  activity upon Sarcina lutea: active
Sarcina lutea PCI 1001; Micrococcus luteus, PCI1001, pH 7.0, 37° C., 18 hours
  MIC: 6.2 µg/mL (≈ 11.3 µM)
Fusarium oxysporum
  MIC: > 100 µg/mL
S. aureus FDA 209P JC-1
  MIC: 0.7 µg/mL (≈ 1.28 µM)
Poultry [2]
  side effects in poultry: without any side effects
[3]
  MIC: 25 µg/mL (≈ 45.7 µM)
Eimeria brunetti
  activity upon coccidiosis: significantly active
Alternaria kikuchiana
  MIC: > 100 µg/mL
[4]
  MIC: 3.1 µg/mL (≈ 5.67 µM)
[5]
  MIC: 3.1 µg/mL (≈ 5.67 µM)
Poultry [6]
  growth-promoting effect: capable of promoting the growth of poultry; also recorded: exhibits a growth-promoting effect
In vivo
  LD50: 48.5 mg/kg
[7]
  MIC: > 100 µg/mL
Sclerotinia cinerea
  MIC: 100 µg/mL (≈ 183 µM)
Eimeria necatrix
  activity upon coccidiosis: significantly active
E. coli B
  MIC: > 100 µg/mL
B. agri
  MIC: 12.5 µg/mL (≈ 22.9 µM)
S. albus
  MIC: 12.5 µg/mL (≈ 22.9 µM)
Shigella sonnei E-33
  MIC: > 100 µg/mL
B. anthracis
  MIC: 12.5 µg/mL (≈ 22.9 µM)
[8]
  MIC: 6.2 µg/mL (≈ 11.3 µM)
Eimeria tenella; Eimeria tenella, also when resistant to amprolium hydrochloride, clopidol, robenidine hydrochloride
  activity upon coccidiosis: significantly active
Eimeria tenella; chicks infected with Eimeria tenella
  reducing mortality of chicks: effective in reducing mortality of chicks
B. subtilis ATCC 6633
  MIC: 6.2 µg/mL (≈ 11.3 µM)
Candida albicans
  MIC: > 100 µg/mL
Salmonella typhimurium
  MIC: > 100 µg/mL
[9]; 0.005 % AM-1042 (Test-5)
  Caecal lession: +
  Survival ratio: 90%
  RIW (ratio of the increase of the body weight): 98.7%
[9]; 0.0075 % AM-1042 (Test-4)
  Caecal lession: -
  Survival ratio: 100%
  RIW (ratio of the increase of the body weight): 99.9%
[9]; 0.01 % AM-1042 (Test-3)
  Caecal lession: -
  Survival ratio: 100%
  RIW (ratio of the increase of the body weight): 100.8%
[9]; 0.015 % AM-1042 (Test-2)
  Caecal lession: -
  Survival ratio: 100%
  RIW (ratio of the increase of the body weight): 100.5%
[9]; 0.02 % AM-1042 (Test-1)
  Caecal lession: -
  Survival ratio: 100%
  RIW (ratio of the increase of the body weight): 100.2%
B. subtilis NRRL B-558
  MIC: > 100 µg/mL

Reference: patent US4226879A, “Antibiotic composition” (Kyowa Hakko Kogyo Kabushiki Kaisha, priority 1976, dated 1980)
